Where a SMILES comes first, the peptide text is derived from it. [ ]: non-standard residue; d: D form. The star is where a group is joined. O(cholesteryl) = CC(C)CCC[C@@H](C)[C@H]1CC[C@H]2[C@@H]3CC=C4C[C@@H](O*)CC[C@]4(C)[C@H]3CC[C@]12C; PEG12 = NCCOCCOCCOCCOCCOCCOCCOCCOCCOCCOCCOCCOCCC(=O)O; PEG8 = NCCOCCOCCOCCOCCOCCOCCOCCOCCC(=O)O; PEG4 = NCCOCCOCCOCCOCCC(=O)O

The test system of assay [1] is Human immunodeficiency virus 1. As to the kind of experiment: Antiviral activity against HIV-1 IIIB assessed as inhibition of viral replication measured after 4 days by ELISA. The format is functional, organism-based. The note with it: Human immunodeficiency virus 1, IIIB, 96 h. (ELISA stands for enzyme-linked immunosorbent assay.)
For assay [2], the system named is Human immunodeficiency virus 1. As to the kind of experiment: Antiviral activity against HIV-1 IIIB (B, X4) assessed as inhibition of viral replication measured after 4 days by ELISA. The format is functional, organism-based. The note with it: Human immunodeficiency virus 1, IIIB (B, X4), 96 h.
Assay [3] is described as follows: Selectivity ratio of EC50 for antiviral activity against T20-resistant HIV-1 V38A/N42T to EC50 for antiviral activity against T20-sensitive HIV-1 D36G. The format is functional.
Assay [4] relates to Human immunodeficiency virus 1. As to the kind of experiment: Antiviral activity against T20-resistant HIV-1 V38A/N42T assessed as inhibition of viral replication measured after 4 days by ELISA. In kind it is functional, organism-based.
Assay [5] has as its system Human immunodeficiency virus 1. As to the kind of experiment: Antiviral activity against T20-sensitive HIV-1 D36G assessed as inhibition of viral replication measured after 4 days by ELISA. In kind it is functional, organism-based.
The nature of assay [6]: Selectivity ratio of EC50 for antiviral activity against T20-resistant HIV-1 V38E/N42S to EC50 for antiviral activity against T20-sensitive HIV-1 D36G. The format is functional.
The test system of assay [7] is Human immunodeficiency virus 1. As to the kind of experiment: Antiviral activity against T20-resistant HIV-1 V38E/N42S assessed as inhibition of viral replication measured after 4 days by ELISA. In kind it is functional, organism-based.

As to `CC[C@H](C)[C@H](NC(=O)[C@H](CO)NC(=O)[C@H](CCC(=O)O)NC(=O)[C@H](CCC(=O)O)NC(=O)[C@H](CCC(N)=O)NC(C)=O)C(=O)N[C@@H](CCCCN)C(=O)N[C@@H](CCCCN)C(=O)N[C@@H](Cc1c[nH]c2ccccc12)C(=O)N[C@@H](CCC(=O)O)C(=O)N[C@@H](CCC(=O)O)C(=O)N[C@@H](Cc1c[nH]c2ccccc12)C(=O)N[C@@H](CO)C(=O)N[C@@H](CCCCN)C(=O)N[C@@H](CCCCN)C(=O)N[C@H](C(=O)N[C@@H](CCC(=O)O)C(=O)N[C@@H](CCC(=O)O)C(=O)N[C@@H](CC(C)C)C(=O)N[C@H](C(=O)N[C@@H](CCCCN)C(=O)N[C@@H](CCCCN)C(=O)N[C@@H](CO)C(=O)N[C@@H](CCC(=O)O)C(=O)N[C@@H](CCC(=O)O)C(=O)N[C@@H](CC(C)C)C(=O)N[C@H](C(=O)N[C@@H](CCCCN)C(=O)N[C@@H](CCCCN)C(=O)N[C@H](C(=O)N[C@@H](CCC(=O)O)C(=O)N[C@@H](CCC(=O)O)C(=O)N[C@@H](CCC(N)=O)C(=O)N[C@H](C(=O)N[C@@H](CCCCN)C(=O)N[C@@H](CCCCN)C(=O)N[C@@H](CS)C(=O)O[C@H]1CC[C@@]2(C)C(=CC[C@H]3[C@@H]4CC[C@H]([C@H](C)CCCC(C)C)[C@@]4(C)CC[C@@H]32)C1)[C@@H](C)CC)[C@@H](C)CC)[C@@H](C)CC)[C@@H](C)CC)[C@@H](C)CC` (Ac-QEESIKKWEEWSKKIEELIKKSEELIKKIEEQIKKC-{O(cholesteryl)}), the concentration giving a half-maximal response (EC50) (in general, the midpoint of the concentration-response curve) in assay [1] is over 500 nM.

`CC[C@H](C)[C@H](NC(=O)[C@H](CCC(N)=O)NC(=O)[C@H](CCC(=O)O)NC(=O)[C@H](CCC(=O)O)NC(=O)[C@@H](NC(=O)[C@H](CCCCN)NC(=O)[C@H](CCCCN)NC(=O)[C@@H](NC(=O)[C@H](CC(C)C)NC(=O)[C@H](CCC(=O)O)NC(=O)[C@H](CCC(=O)O)NC(=O)[C@H](CO)NC(=O)[C@H](CCCCN)NC(=O)[C@H](CCCCN)NC(=O)[C@@H](NC(=O)[C@H](CC(C)C)NC(=O)[C@H](CCC(=O)O)NC(=O)[C@H](CCC(=O)O)NC(=O)[C@@H](NC(=O)[C@H](CCCCN)NC(=O)[C@H](CCCCN)NC(=O)[C@H](CO)NC(=O)[C@H](Cc1c[nH]c2ccccc12)NC(=O)[C@H](CCC(=O)O)NC(=O)[C@H](CCC(=O)O)NC(=O)[C@H](Cc1c[nH]c2ccccc12)NC(=O)[C@H](CCCCN)NC(=O)[C@H](CCCCN)NC(=O)[C@@H](NC(=O)[C@H](CO)NC(=O)[C@H](CCC(=O)O)NC(=O)[C@H](CCC(=O)O)NC(=O)[C@H](CCC(N)=O)NC(C)=O)[C@@H](C)CC)[C@@H](C)CC)[C@@H](C)CC)[C@@H](C)CC)[C@@H](C)CC)C(=O)N[C@@H](CCCCN)C(=O)N[C@@H](CCCCN)C(=O)NCCOCCOCCOCCOCCC(=O)N[C@@H](CS)C(=O)O[C@H]1CC[C@@]2(C)C(=CC[C@H]3[C@@H]4CC[C@H]([C@H](C)CCCC(C)C)[C@@]4(C)CC[C@@H]32)C1` (Ac-QEESIKKWEEWSKKIEELIKKSEELIKKIEEQIKK[PEG4]C-{O(cholesteryl)}): the EC50 in assay [1] stood at 44.4 nM.

As to `CC[C@H](C)[C@H](NC(=O)[C@H](CCC(N)=O)NC(=O)[C@H](CCC(=O)O)NC(=O)[C@H](CCC(=O)O)NC(=O)[C@@H](NC(=O)[C@H](CCCCN)NC(=O)[C@H](CCCCN)NC(=O)[C@@H](NC(=O)[C@H](CC(C)C)NC(=O)[C@H](CCC(=O)O)NC(=O)[C@H](CCC(=O)O)NC(=O)[C@H](CO)NC(=O)[C@H](CCCCN)NC(=O)[C@H](CCCCN)NC(=O)[C@@H](NC(=O)[C@H](CC(C)C)NC(=O)[C@H](CCC(=O)O)NC(=O)[C@H](CCC(=O)O)NC(=O)[C@@H](NC(=O)[C@H](CCCCN)NC(=O)[C@H](CCCCN)NC(=O)[C@H](CO)NC(=O)[C@H](Cc1c[nH]c2ccccc12)NC(=O)[C@H](CCC(=O)O)NC(=O)[C@H](CCC(=O)O)NC(=O)[C@H](Cc1c[nH]c2ccccc12)NC(=O)[C@H](CCCCN)NC(=O)[C@H](CCCCN)NC(=O)[C@@H](NC(=O)[C@H](CO)NC(=O)[C@H](CCC(=O)O)NC(=O)[C@H](CCC(=O)O)NC(=O)[C@H](CCC(N)=O)NC(C)=O)[C@@H](C)CC)[C@@H](C)CC)[C@@H](C)CC)[C@@H](C)CC)[C@@H](C)CC)C(=O)N[C@@H](CCCCN)C(=O)N[C@@H](CCCCN)C(=O)NCCOCCOCCOCCOCCOCCOCCOCCOCCC(=O)N[C@@H](CS)C(=O)O[C@H]1CC[C@@]2(C)C(=CC[C@H]3[C@@H]4CC[C@H]([C@H](C)CCCC(C)C)[C@@]4(C)CC[C@@H]32)C1` (Ac-QEESIKKWEEWSKKIEELIKKSEELIKKIEEQIKK[PEG8]C-{O(cholesteryl)}), the half-maximal effective concentration (EC50) in assay [1] was 21.2 nM.

`CC[C@H](C)[C@H](NC(=O)[C@H](CCC(N)=O)NC(=O)[C@H](CCC(=O)O)NC(=O)[C@H](CCC(=O)O)NC(=O)[C@@H](NC(=O)[C@H](CCCCN)NC(=O)[C@H](CCCCN)NC(=O)[C@@H](NC(=O)[C@H](CC(C)C)NC(=O)[C@H](CCC(=O)O)NC(=O)[C@H](CCC(=O)O)NC(=O)[C@H](CO)NC(=O)[C@H](CCCCN)NC(=O)[C@H](CCCCN)NC(=O)[C@@H](NC(=O)[C@H](CC(C)C)NC(=O)[C@H](CCC(=O)O)NC(=O)[C@H](CCC(=O)O)NC(=O)[C@@H](NC(=O)[C@H](CCCCN)NC(=O)[C@H](CCCCN)NC(=O)[C@H](CO)NC(=O)[C@H](Cc1c[nH]c2ccccc12)NC(=O)[C@H](CCC(=O)O)NC(=O)[C@H](CCC(=O)O)NC(=O)[C@H](Cc1c[nH]c2ccccc12)NC(=O)[C@H](CCCCN)NC(=O)[C@H](CCCCN)NC(=O)[C@@H](NC(=O)[C@H](CO)NC(=O)[C@H](CCC(=O)O)NC(=O)[C@H](CCC(=O)O)NC(=O)[C@H](CCC(N)=O)NC(C)=O)[C@@H](C)CC)[C@@H](C)CC)[C@@H](C)CC)[C@@H](C)CC)[C@@H](C)CC)C(=O)N[C@@H](CCCCN)C(=O)N[C@@H](CCCCN)C(=O)NCCOCCOCCOCCOCCOCCOCCOCCOCCOCCOCCOCCOCCC(=O)N[C@@H](CS)C(=O)O[C@H]1CC[C@@]2(C)C(=CC[C@H]3[C@@H]4CC[C@H]([C@H](C)CCCC(C)C)[C@@]4(C)CC[C@@H]32)C1` (Ac-QEESIKKWEEWSKKIEELIKKSEELIKKIEEQIKK[PEG12]C-{O(cholesteryl)}): in assay [1], the concentration for a half-maximal effect (EC50) was determined as 5.22 nM.

For the molecule “Ac-QEENIKKWEEWDKKIEELIKKSEELIKKIEEQIKK-NH2”, the EC50 in assay [2] was determined as 65.7 nM.

In the case of “Ac-QEENNKKWEEWDKKIEELIKKSEELIKKIEEQIKK-NH2”, the EC50 in assay [2] is 68.7 nM.

“Ac-QEESIKKWEEWDKKIEELIKKSEELIKKIEEQIKK-NH2”: in assay [2], the concentration for a half-maximal effect (EC50) turned out to be 40.8 nM.

Regarding “Ac-QIWNNMTWEEWDKKIEELIKKSEELIKKIEEQIKK-NH2”, the half-maximal effective concentration (EC50) in assay [2] was 36.3 nM.

Turning to Ac-WEEWDKKIEELIKKSEELIKKIEEQIKK-NH2, the EC50 in assay [2] was over 10000 nM.

In the case of enfuvirtide, the entries for the “Ratio EC50” value in assay [3] and in assay [6] were 17 and over 24, respectively. The 50% effective concentration (EC50) in assay [1] was 8.26 nM; in assay [4], 696 nM; in assay [5], 41.1 nM; in assay [7], over 1000 nM.

Values taken from ChEMBL document CHEMBL5131511, “Design of artificial α-helical peptides targeting both gp41 deep pocket and subpocket as potent HIV-1 fusion inhibitors” (Eur J Med Chem, 2022).
